Results on 14 molecules are retold here after ChEMBL document CHEMBL4000236, “Nardonaphthalenones A and B from the roots and rhizomes of Nardostachys chinensis Batal” (Bioorg Med Chem Lett, 2017).

Assay type in all cases: cell-based
Assay [1] concerns the target Sodium-dependent serotonin transporter (Homo sapiens) (UniProt P31645). In words: Modulation of human SERT expressed in HEK293 cells at 0.1 uM using APP+ as substrate by fluorescence assay relative to control.
Assay [2] shares this target. In words: Modulation of human SERT expressed in HEK293 cells at 10 uM using APP+ as substrate by fluorescence assay relative to control.
The target is the same in assay [3]. The experiment in a line: Modulation of human SERT expressed in HEK293 cells at 1 uM using APP+ as substrate by fluorescence assay relative to control.

Activity calls are given as the source filed them. The rule behind the calls is not given here.

Sequence of Sodium-dependent serotonin transporter (Homo sapiens) (P31645 whole entry, looked up): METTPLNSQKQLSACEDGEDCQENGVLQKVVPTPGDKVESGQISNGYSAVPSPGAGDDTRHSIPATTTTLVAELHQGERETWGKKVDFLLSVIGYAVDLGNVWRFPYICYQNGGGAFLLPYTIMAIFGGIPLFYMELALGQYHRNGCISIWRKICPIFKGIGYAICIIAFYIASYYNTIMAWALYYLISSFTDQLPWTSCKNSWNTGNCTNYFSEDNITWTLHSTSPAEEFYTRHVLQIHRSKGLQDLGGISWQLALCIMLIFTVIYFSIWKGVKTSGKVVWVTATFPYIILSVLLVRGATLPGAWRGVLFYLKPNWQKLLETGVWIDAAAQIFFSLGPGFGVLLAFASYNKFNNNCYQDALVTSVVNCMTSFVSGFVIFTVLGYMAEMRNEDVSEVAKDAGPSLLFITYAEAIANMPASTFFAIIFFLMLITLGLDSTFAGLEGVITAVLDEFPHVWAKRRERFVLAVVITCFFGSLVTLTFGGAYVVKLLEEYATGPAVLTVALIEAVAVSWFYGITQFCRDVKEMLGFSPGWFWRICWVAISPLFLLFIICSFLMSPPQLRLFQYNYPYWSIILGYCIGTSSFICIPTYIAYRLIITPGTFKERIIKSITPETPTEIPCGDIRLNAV

As for `COC1=CC(C)(C)c2cc(OC)c(C)cc2C1=O`, the results for the fold change (FC) in assay [1], in assay [2] and in assay [3] were 0.956, 0.942 and 1, respectively.

`COC(=O)C1=CO[C@@H](O[C@@H]2O[C@H](CO)[C@@H](O)[C@H](O)[C@H]2O)[C@H]2[C@@H](CO)CC[C@H]12`: the result in assay [1], in assay [2] and in assay [3] was inactive.

Take `CC(C)CC(=O)OCC1=CO[C@@H](OC(=O)CC(C)C)C2C1CC(=O)[C@H]2C` (stereo not given in full): the result in assay [1], in assay [2] and in assay [3] was inactive.

On to `CC(C)CC(=O)O[C@@H]1OC=C(CO[C@@H]2O[C@H](CO)[C@@H](O)[C@H](O)[C@H]2O)C2C[C@H](O)[C@@H](CO)C21` (stereo not given in full), for which the fold change (FC) in assay [1] stood at 0.975; in assay [2] it was 0.933; in assay [3] it was 0.981.

For `CC(=O)/C=C/C1=C(C)CCCC1(C)C`, the fold change (FC) was 0.989 in assay [1], 1.01 in assay [2] and 1.07 in assay [3].

On to `C/C1=C\CC[C@@H](C)CCO[C@@H]2O[C@H](CO[C@@H]3OC[C@](O)(COC1=O)[C@H]3O)[C@@H](O)[C@H](O)[C@H]2O`, for which the fold change (FC) in assay [1] is 1.04; in assay [2] it was 1.06; in assay [3] it was 1.08.

For the molecule `CC(=O)/C=C/C1(O)C(C)(C)CCCC1(C)O` (stereo not given), the fold change (FC) in assay [1] was found to be 0.934; in assay [2], 1.09; in assay [3], 1.07.

`CC(=O)OC[C@H]1O[C@@H](OCC2=CO[C@@H](OC(=O)CC(C)C)C3C2C[C@H](O)[C@H]3CO)[C@H](O)[C@H](O)[C@@H]1O` (stereo not given in full): the result in assay [1], in assay [2] and in assay [3] was inactive.

Regarding `CN1c2ccccc2C(NCCCCCCC(=O)O)c2ccc(Cl)cc2S1(=O)=O` (stereo not given), the fold change (FC) in assay [3] was found to be 1.18.

As to `C[C@H]1CC[C@@H]2C(C(=O)O)=CO[C@@H](O[C@@H]3O[C@H](CO)[C@@H](O)[C@H](O)[C@H]3O)[C@H]21`, the fold change (FC) came to 1.05 in assay [1], 1.07 in assay [2] and 1.08 in assay [3].

In the case of `CC1=CC(=O)CC(C)(C)[C@@H]1CC[C@@H](C)OC(=O)CC(C)C`, the results for the fold change (FC) in assay [1], in assay [2] and in assay [3] were 1.03, 1.07 and 1.05, respectively.

Take `COC1=CC(C)(C)c2cc(OC)c(C)c(OC)c2C1=O`: the fold change (FC) turned out to be 1.07 in assay [1], 1.05 in assay [2] and 1.05 in assay [3].

`COC(=O)C1=CO[C@@H](O[C@@H]2O[C@H](CO)[C@@H](O)[C@H](O)[C@H]2O)[C@H]2[C@@H](COC(C)=O)CC[C@H]12`: the results for the fold change (FC) in assay [1], in assay [2] and in assay [3] were 0.965, 0.989 and 1.07, respectively.

In the case of `CC(=O)CC/C=C(C)/C=C/[C@H]1C(C)=CC(=O)CC1(C)C`, the fold change (FC) in assay [1] worked out at 1.06; in assay [2], 1.1; in assay [3], 1.07.
